According to US20140314904A1, “PRE-SLAUGHTER DIET INCLUDING METHIONINE” (ADISSEO FRANCE S.A.S., priority 2011, published 2014):
Where two headings read alike, the source gives them in different places.

Assays:
slaughter pigs = assay: Storage loss of pork chops after display period; format: in vivo, pig; conditions: 7 days at 2° C., 1.1% total methionine for 7 days before slaughter, LS mean ± SEM
From the text: Twenty-one slaughter pigs ([Yorkshire×Swedish Landrace]×Hampshire) were raised on a commercial diet. Pigs were randomly assigned to one of three groups (n=7). The groups represented three feeding strategies, namely a Control group which received a standardized diet comprising 0.27% total methionine, and both a DLM and HMTBA group, receiving the same diet as the Control group throughout the feeding period, apart from the fact that they were fed a higher level of methionine (1.1% total methionine) during a seven day finishing period immediately prior to slaughter. The supplements were given in two forms, either as D L-methionine (DLM) or DL-2-hydroxy-4-methylthiobutanoic acid (HMTBA).
Pigs were slaughtered at a commercial slaughter house in Sweden after a resting time of 5 hours. At 45 minutes post mortem, pH (Knick portamess 751 pH-meter with an Ingold LOT glass electrode, Tech Instrumentering ApS, Denmark) and temperature (digital thermometer, Weber, Stephen Nordic, Denmark) were measured in the m. Longissimus dorsi (LD) at the level of the 10th rib. At 48 hours post mortem, the entire back was dissected from the carcass and transported under controlled conditions to the University of Copenhagen for further measurements.
Pork chops were cut perpendicular to the long axis of each LD muscle. Six 3 cm thick pork chops was sliced from each LD. Three were vacuum packed and three were packed in a high-oxygen modified atmosphere. The chops were placed in plastic trays (M71-43A white/PS; 195×144×43 mm in dimension; Frch Plast, Denmark) and placed in vacuum bags (EM-628862; O2 transmission rate=40-50 cm^3/m^2/24 h/bar, CO2 transmission rate=150 cm^3/m^2/24 h/bar, water-vapour transmission rate=2.6 g/m^2/24 h; LogiCon Nordic A/S, Denmark). The ambient air was removed from all vacuum bags using a vacuum machine (type, manufacturer, country). The bags intended for […] were first filled with a gas mixture (80% oxygen/20% carbon dioxide) before being sealed completely, whereas the bags intended for MAP were only partially sealed. […] (until 9 days post mortem). The gas composition was checked (CheckMate 9900, PBI Dansensor, Denmark) before packaging and again prior to opening, at the end of the simulated display period in order to check for leakage. The oxygen-enriched environment was well maintained (83.4%) throughout the display period for all MA packages.
Storage loss was determined as the weight loss percentage at the end of the display period (9 days post mortem) relative to the weight at the day of packaging (two days post mortem). The cooking loss was determined as the weight loss percentage between the pork chops before and after cooking. The results are given as the mean of the three pork chops in each meat pack.

[1] = system: L. dorsi muscle of the pigs; assay: sEMG peak-to-peak amplitude of L. dorsi muscle; format: in vivo, pig; conditions: 1 weeks dietary supplementation
From the text: This study used both a single and a double differential electrode configuration, with electrodes ([…] & […]; Blue Sensor, Medicotest […], Denmark) configured as described previously by Harrison et al. (Harrison, […]. Molsted, & E. M. Bartels. The uremic environment and muscle dysfunction in man and rat. Nephron. Vol 103: 33-42, 2006). Surface electromyography recordings were taken via an ML 132 amplifier connected to a ML780 PowerLab/[…] converter (AD Instruments, Chalgrove, Oxfordshire, UK) with a further connection to a MacBook Air with Chart v. 3.6.3/s Software, Peak Parameters and Spike Histogram extensions. […] Sampling speed was set to 40,000 per second. Differential recordings of sEMG signals were made via surface electrodes from the L. dorsi muscle as previously described by Andersen et al. (2008, Andersen […], Guy J H, Edwards S A & Harrison A P, Postnatal changes in electromyographic signals during piglet growth, and in relation to muscle fibre types. […] In brief, a bipolar differential electrode configuration, with disposable Ag-AgCl recording electromyography electrodes was attached to the exposed skin surface above the L. dorsi muscle, with a set inter-electrode distance of 16-19 mm (Andersen et al., 2008). […] The recorded sEMG signal was assessed in terms of peak-to-peak amplitude (mV) using Chart analysis software (AD Instruments, Chalgrove, Oxfordshire, UK).

slaughter weight pigs = system: slaughter weight pigs
Description: Pigs ([Yorkshire×Swedish Landrace]×Hampshire)(n=10×3 were fed twice daily 2% of their body weight with the respective diets (either low or high methionine diets), water ad libitum.
Two square stimulating electrodes were placed next to one another (not touching) and infront of the recording electrodes, after which the muscle was stimulated at 10, 20, 60, 150 and 200 Hz and the subsequent responses were recorded. Two leads were placed on either side of the abdomen at a position of the last rib to form a “triangle” with the reference electrode and serve to record both respiratory movements as well as sECG signal.
Using electrodes placed either side of the abdomen at the position of the last rib, and a reference electrode placed on the ear, it was possible to create an Einthoven triangle and to record both an ECG (plus heart rate) and respiration rate through diaphragm movements. The recorded signal was assessed in terms of rate and the Q-T interval (time taken for the ventricles to depolarize and repolarize) using Chart analysis software (AD Instruments, Chalgrove, Oxfordshire, UK).
In addition to the sEMG recordings, we were able to obtain non-invasive measurements of the rate of respiration (breaths/min) and the heart rate (bpm) as well as an analysis of the recorded ECG in terms of the time taken for ventricle depolarization and repolarization, the so-called Q-T interval.
Table 1 presents the effects of 1 weeks dietary supplementation with DLM on the respiration and heart rate of 90-100 kg slaughter weight pigs, as well as the Q-T Interval. Values are the mean of a number of pigs, where “n” represents the number of animals per group. (ns) represents a difference between means that was not quite significant.

[2] = post (n = 6), after 1 weeks dietary supplementation
[3] = pre (n = 6), before supplementation

SMILES | Storage loss (slaughter pigs; MAP (80% O2 + 20% CO2)) | Storage loss (slaughter pigs; Vacuum) | Improvement in muscle growth/performance (sEMG peak-to-peak amplitude) cf CONT (untreated) levels [1] [%] | Heart Rate (slaughter weight pigs; [2]) [bpm] | Q-T Interval (slaughter weight pigs; [2]) [ms] | Respiration (slaughter weight pigs; [2]) [breaths/min] | Difference in Q-T Interval: INCREASE by (slaughter weight pigs; post versus pre, P < 0.01) [% P < 0.01] | Difference in Heart Rate: DECREASE by (slaughter weight pigs; post versus pre, ns) | Difference in Respiration: DECREASE by (slaughter weight pigs; post versus pre, ns) | Heart Rate (slaughter weight pigs; [3]) [bpm] | Q-T Interval (slaughter weight pigs; [3]) [ms] | Respiration (slaughter weight pigs; [3]) [breaths/min] | Change in sEMG peak-to-peak amplitude between pre and post groups ([1]; 60, 150, 200 Hz)
CSCCC(O)C(=O)O (racemic) [HMTBA, 2-hydroxy-4-(methylthio) butanoic acid] | 6.37 ± 0.83 ^A, B g | 4.63 ± 0.83 ^B g | ~100 | – | – | – | – | – | – | – | – | – | –
CSCCC(N)C(=O)O (racemic) [DLM, DL-methionine] | 9.34 ± 0.83 ^A g | 4.56 ± 0.89 ^B g | – | 110.11 | 242.31 | 23.53 | 8.5 | 9% (ns) | 12% (ns) | 121.17 | 223.21 | 26.83 | clear improvement
